Experimental data: US20260144807A1, “METHOD OF ADMINISTRATION OF A PARENTERAL FORMULATION COMPRISING A P[…]” (Cybin UK LTD, priority 2022, published 2026)

What was measured:
healthy volunteers = conditions: single oral dose, interim analysis; cited from earlier work
[1] = tested on: patients with major depressive disorder; assay: MADRS assessment, NCT04673383 Part B, IV infusion over about 10 minutes; assay type: in vivo, human; set-up: average percent reduction from baseline (MADRS) / Mean % reduction (MADRS): concentration or dose not given beside the values
Text: Therapeutic benefit or efficacy may be assessed using a rating scale. For patients with a depressive disorder such as MDD or TRD, the Montgomery-Asberg Depression Rating Scale (MADRS), the Hamilton Depression Rating Scale (HAMD-17) or the Beck's Depression Inventory (BDI-II) may be used. The rating scale is used prior to administration of the psychedelic agent, to provide a baseline assessment, and again after administration of the psychedelic agent.
(§1) A double-blind, randomised, placebo-controlled study of intravenous doses of DMT fumarate, was carried out in patients with major depressive disorder, MDD, (ClinicalTrials.gov Identifier: NCT04673383, Part B). The protocol comprised the steps of:
• MADRS assessment by an independent assessor
(§2) • Administration of either a placebo or a dose of DMT fumarate by continuous intravenous infusion over a dosing period of about 10 minutes. • Tolerability assessment following cessation of the psychedelic experience. Study Day 8 (±1 day), Study Day 15 (±1 day) • MADRS assessment
• Administration of a dose of DMT fumarate by continuous intravenous infusion over a dosing period of about 10 minutes. • Tolerability assessment following cessation of the psychedelic experience. Study Day 22 (+1 day), Study Day 29 (+2 days), Day 45 (+2 days), Day 105 (+2 days) • MADRS assessment
(§3) The administration of the study drug, DMT fumarate, in NCT04673383, Part B was in accordance with the present invention. Group A received one dose of active (DMT fumarate) on Day 1 and were assessed using MADRS at Day 8 and Day 15. Group P received a placebo on Day 1, and were also assessed at Day 8 and Day 15. This comprised the blinded phase of the study. Group P subsequently received one dose of active in the open label phase of the study on Day 15 and were assessed at Day 22 and 29. Data from this group following administration of the active dose is represented as PA.
As described above, Group A received one dose of active (DMT fumarate) on Day 1 and were assessed at Day 8 and Day 15. Group P received a placebo on Day 1, and were also assessed at Day 8 and Day 15.

[2] = tested on: patients with major depressive disorder; assay: Challenging Experience Questionnaire (CEQ), NCT04673383 Part B; assay type: in vivo, human
Text: (§4) Garcia-Romeu and Richards (International review of Psychiatry, Vol. 30, 2018, issue 4, pp 291-316) discuss the use of serotonergic hallucinogens in clinical interventions and state ‘issues, such as recent suicidality, drug or alcohol use disorders, dissociative disorders, and past history of trauma should be taken into account depending on the therapeutic target, as these may be exacerbated by high-dose psychedelic administration or increase risk for adverse events. ‘They further state: Psychodynamic-autobiographical experiences are predominated by emotional recollections and reflections on significant previous or current life events and relationships. […] A patient's subjective experience may be evaluated by the Challenging Experience Questionnaire (CEQ), a questionnaire designed to measure challenging psychological experiences associated with a psychedelic experience.
as §3, with “This comprised the blinded phase of the study.” left out, “Data from this group following administration of the active dose is represented as PA.” left out

[3] = tested on: patients with major depressive disorder; assay: State-Trait Anxiety Inventory-Trait (STAI-T), NCT04673383 Part B; assay type: in vivo, human
Protocol: as §1, §2
• Administration of a dose of DMT fumarate by continuous intravenous infusion over a dosing period of about 10 minutes. • Tolerability assessment following cessation of the psychedelic experience. […]
as §3, with “This comprised the blinded phase of the study.” left out, “Data from this group following administration of the active dose is represented as PA.” left out
Measures assessing patients' anxiety and wellbeing, areas which are often negatively impacted by depression, were also analysed across the study. […]

[4] = tested on: patients with major depressive disorder; assay: Beck Depression Inventory (BDI), NCT04673383 Part B; assay type: in vivo, human
Protocol: as §1
(§5) • Administration of either a placebo or a dose of DMT fumarate by continuous intravenous infusion over a dosing period of about 10 minutes. • Tolerability assessment following cessation of the psychedelic experience. Study Day 8 (±1 day), Study Day 15 (±1 day) • MADRS assessment […]
as §3, with “This comprised the blinded phase of the study.” left out, “Data from this group following administration of the active dose is represented as PA.” left out
Analysis of patient-reported depression scores corroborated the MADRS assessments conducted by independent clinical raters. Improvements in depression scores from baseline were observed across all study timepoints in patients receiving at least one dose of active, as measured by the Beck Depression Inventory (“BDI”). […]

healthy adults [5] = assay: Tolerability question after psychedelic experience, NCT04673383 Part A; assay type: in vivo, human; conditions: all healthy volunteers, highest doses tested
Text: Tolerability may be assessed following cessation of the subjective psychedelic experience by asking the patent the question ‘Do you wish you had not gone through that experience?’ Yes responses are deemed to indicate poor tolerability, while No responses are deemed to indicate good tolerability.
All patient participants in this study, after receiving one dose of DMT fumarate, answered NO to the question ‘Do you wish you had not gone through that experience?’, indicating good tolerability of the psychedelic agent. In Part A of the same study, healthy adults received single escalating doses of DMT fumarate. All healthy volunteers answered “no” to the same question at the highest doses tested.

healthy adults [6] = assay: Challenging Experience Questionnaire (CEQ), NCT04673383 Part A; assay type: in vivo, human; conditions: active group, healthy participants
Text: as §4, with “experience. […]” for “experience.”
The participant's experience was evaluated using the Challenging Experience Questionnaire (CEQ). In Part A of the study, a mean CEQ score of 0.172 was recorded for the active group, compared with a mean of 0.052 for the placebo group. […]

[7] = Drug related serious adverse events, NCT04673383; assay type: in vivo, human; conditions: reported at the date of filing
Protocol: A double-blind, randomised, placebo-controlled study of intravenous doses of DMT fumarate, was carried out in patients with major depressive disorder, MDD, (ClinicalTrials.gov Identifier: NCT04673383, Part B).

[8] = tested on: patients with major depressive disorder; assay: Warwick-Edinburgh Mental Wellbeing Scale (WEMWBS), NCT04673383 Part B; assay type: in vivo, human
Protocol: as §1, §5
as §3, with “This comprised the blinded phase of the study.” left out, “Data from this group following administration of the active dose is represented as PA.” left out
Further, a rapid and sustained improvement in wellbeing was observed following administration of at least one dose of DMT fumarate in accordance with the invention, with supportive therapy, as measured by the Warwick-Edinburgh Mental Wellbeing Scale (“WEMWBS”).

[9] = tested on: patients with major depressive disorder; conditions: baseline (7 subjects) vs 1 day after final administration of 0.1 mg/kg and 0.3 mg/kg doses (6 subjects); cited from earlier work
healthy participants = assay: Perceived duration of the psychedelic experience; assay type: in vivo, human; conditions: 9 mg IV
Text: The onset and cessation of the psychedelic experience may be assessed by the attending clinician, psychiatrist or therapist. ‘Duration of the psychedelic experience’ as used herein refers to the time from the start of the continuous parenteral administration to the cessation of the psychedelic experience. The duration of the psychedelic experience may vary between patients. The term ‘duration’ as used herein, encompasses the mean duration of the psychedelic experience.
The safety and tolerability of a single intravenous dose of a deuterated analogue of DMT is being investigated in healthy participants in an on-going clinical trial. The administration of the deuterated analogue of DMT is in accordance with the present invention. Tolerability is assessed post-psychedelic experience by the question ‘Do you wish you had not gone through that experience?’.
A 9 mg dose of the deuterated analogue was administered in accordance with the present invention to a cohort of 6 psychedelic-experienced healthy participants. Preliminary data were compared with pharmacokinetic data from Part A of NCT04673383, Cohort 1 (9 mg DMT fumarate).
IRVAS is a rating scale which measures the intensity of the psychedelic experience. Additionally, the perceived duration of the psychedelic experience was in the range 37-57 minutes for the deuterated analogue, compared with approximately 25 minutes for DMT.

[10] = tested on: healthy volunteer participants; conditions: all three healthy volunteers, 0.3 mg/kg, IV bolus; cited from earlier work
[11] = tested on: 3 healthy volunteers and 6 patients; conditions: 0.3 mg/kg, IV bolus; cited from earlier work
[12] = tested on: patients with major depressive disorder; assay: D'Souza et al. HAMD-17 scores; assay type: in vivo, human; conditions: 1 day after final administration of 0.1 and 0.3 mg/kg doses
Protocol: D'Souza et al report an ‘exploratory study of the dose-related safety, tolerability, and efficacy of dimethyltryptamine (DMT) in healthy volunteers and major depressive disorder’ (D. C. D'Souza, S. A. Syed, L. T. Flynn, H. Safi-Aghdam, N. V. Cozzi and M. Ranganathan, Neuropsychopharmacology (2022) 47:1854-1862). Seven patients with major depressive disorder received two doses of DMT hemifumarate (0.1 mg/kg, followed by 0.3 mg/kg) at least 48 hours apart. The participants were administered DMT by intravenous push over 30-60 seconds, i.e., a bolus injection.
D'Souza et al report that the mean change in HAMD-17 scores between baseline (7 subjects) and 1 day after final administration of both a 0.1 mg/kg and a 0.3 mg/kg dose (6 subjects) was −4.5 (Table S6). This improvement approximates to an improvement on the MADRS scale of −3.9.

[13] = Group PA, 2 weeks, study Day 29
[14] = day 8, blinded data for all patients (average of placebo and DMT fumarate patients)
[15] = Group PA, open label phase, Day 105

## [2H]C([2H])([2H])N(C([2H])([2H])[2H])C([2H])([2H])C([2H])([2H])c1c[nH]c2cccc(O)c12 [CYB003]
Healthy volunteers
  average duration of peak effects: ≈ 2 hours
  time to psychedelic effects: ≤ 15 min

## CN(C)CCc1c[nH]c2ccccc12.O=C(O)/C=C/C(=O)O [DMT fumarate, N,N-dimethyltryptamine fumarate]
[1]; Day 8, active vs placebo, p=0.002
  difference in mean change from baseline (MADRS) between Group A and Group P: −10.8 points
[1]; Day 15, active vs placebo, p=0.02
  difference in mean change from baseline (MADRS) between Group A and Group P: −7.4 points
[1]; Group A, 1 week from active dose, study Day 8
  Mean change from baseline (MADRS): −12.7
[1]; Group A, 1 week, study Day 8
  % of subjects with a MADRS score ≤ 10: 43.8%
  % of subjects with ≥ 50% reduction from BL (MADRS): 43.8%
  Mean % reduction (MADRS): −48.2%
[1]; Group A, 2 weeks from active dose, study Day 15
  Mean change from baseline (MADRS): −11.0
[1]; Group A, 2 weeks, study Day 15
  % of subjects with a MADRS score ≤ 10: 29.4%
  % of subjects with ≥ 50% reduction from BL (MADRS): 35.3%
  Mean % reduction (MADRS): −41.0%
[1]; Group PA (open label active after placebo), 1 week from active dose, study Day 22
  Mean change from baseline (MADRS): −10.6
[1]; Group PA, 1 week, study Day 22
  % of subjects with a MADRS score ≤ 10: 42.9%
  % of subjects with ≥ 50% reduction from BL (MADRS): 42.9%
  Mean % reduction (MADRS): −40.6%
[1]; Group PA, 2 weeks from active dose, study Day 29
  Mean change from baseline (MADRS): −10.8
[1]; [13]
  % of subjects with a MADRS score ≤ 10: 31.3%
  % of subjects with ≥ 50% reduction from BL (MADRS): 43.8%
  Mean % reduction (MADRS): −36.7%
[1]; Group PA, all open-label study timepoints, p<0.05
  difference in mean total MADRS score, statistical analysis: statistically significant difference
[1]; [14]
  average improvement on the MADRS score: −7.5
  average percent reduction from baseline (MADRS): −18.4%
[2]; Group A
  mean CEQ score: 0.360
[2]; Group PA
  mean CEQ score: 0.350
[3]; Active, blinded phase, Day 15, p = 0.03 active vs. placebo
  Anxiety (STAI-T CFB): −11.0
[3]; Group PA, open label phase, Day 105 (12-weeks following the open label dose)
  Anxiety (STAI-T CFB): −14.2
[4]; Active, blinded phase, Day 15, p = 0.002 active vs. placebo
  Self-Reported Depression (BDI CFB): −17.4
[4]; [15]
  Self-Reported Depression (BDI CFB): −19.7
Healthy adults [5]
  answer to 'Do you wish you had not gone through that experience?' (tolerability): no
Healthy adults [6]
  mean CEQ score: 0.172
[7]
  drug related serious adverse events: no drug related serious adverse events
[8]; Active, blinded phase, Day 15 (two-weeks following blinded dose)
  Wellbeing (WEMWBS CFB): 10.1
[8]; [15]
  Wellbeing (WEMWBS CFB): 9.8

## CN(C)CCc1c[nH]c2ccccc12 [DMT, 2-(1H-indol-3-yl)-N,N-dimethylethanamine]
[9]
  mean change in HAMD-17 scores: −4.5
Healthy participants
  perceived duration of the psychedelic experience: approximately 25 minutes
[10]
  tolerability score (0-100, 0=intolerable, 100=well tolerated): greater than 70
[11]
  mean score to 'how likely are you to use this drug?' (scale 0 to 100): 22.44
[12]
  improvement on the MADRS scale approximated from HAMD-17 change: ~−3.9
